In data set [1] the target is T1, Estrogen Receptor (ERα) in MCF-7 cells (Homo sapiens (Human), UniProt P03372). Kind of data set: Western blotting assay, ER down-regulation in MCF-7. The following applies: 100 nM compound, 48 h, normalised to 100 nM fulvestrant. It is filed as cell-based. As to the method: (§1) Cells were incubated with compounds (100 nM) or vehicle control (0.1% DMSO) for 48 h at 37° C., 5% CO2 before washing once with PBS and lysing with 80 μl lysis buffer (25 mM Tris/HCl, 3 mM EDTA, 3 mM EGTA, 50 mM NaF, 2 mM sodium orthovanadate, 0.27 M sucrose, 10 mM β-glycerophosphate, 5 mM sodium pyrophosphate, 0.5% TritonX-100, pH 6.8) on ice.
T1 sequence (P03372 whole entry): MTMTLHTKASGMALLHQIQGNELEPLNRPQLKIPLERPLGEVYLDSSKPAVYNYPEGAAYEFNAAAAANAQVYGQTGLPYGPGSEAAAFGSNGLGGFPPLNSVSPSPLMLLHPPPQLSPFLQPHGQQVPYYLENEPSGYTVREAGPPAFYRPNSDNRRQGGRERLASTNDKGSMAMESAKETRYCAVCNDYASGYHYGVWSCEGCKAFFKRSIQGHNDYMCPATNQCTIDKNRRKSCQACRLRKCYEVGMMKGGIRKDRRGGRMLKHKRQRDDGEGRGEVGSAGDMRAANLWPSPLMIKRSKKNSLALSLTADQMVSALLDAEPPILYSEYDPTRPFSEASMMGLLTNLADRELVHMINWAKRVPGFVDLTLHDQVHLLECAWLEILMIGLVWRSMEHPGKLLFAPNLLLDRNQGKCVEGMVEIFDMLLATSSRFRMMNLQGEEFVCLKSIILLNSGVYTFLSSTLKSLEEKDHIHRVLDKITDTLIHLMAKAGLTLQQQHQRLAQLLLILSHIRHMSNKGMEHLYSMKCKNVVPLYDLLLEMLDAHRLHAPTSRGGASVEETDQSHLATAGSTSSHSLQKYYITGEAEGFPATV
(§2) Samples were boiled for 10 min at 95° C. and then frozen at −20° C. until ready for use.
(§3) The blot was stained with Ponceau S (P7170, Sigma) and cut according to appropriate molecular weight markers.
(§4) Membranes were blocked for 1 hour at room temp in 5% Marvel (w/v) in phosphate-buffered saline containing 0.05% Tween™ 20 (PBS/Tween). Blots were then incubated with anti-ERα (SP1) rabbit monoclonal antibody (Thermofisher) diluted 1:1000 at 4° C. overnight (with gentle shaking) followed by several washes with PBS/Tween. […] All antibodies were made up in 5% Marvel (w/v) in PBS/Tween.
(§5) Down-regulation of the ERα receptor was normalised to the vehicle control (0% down-regulation) and the 100 nM fulvestrant control (100% down-regulation) run within the same gel.

The target in data set [2] is T1, Estrogen Receptor (ERα) in MCF-7 cells. The data set can be described thus: MCF-7 ER down-regulation assay (immuno-fluorescence). It is filed as cell-based. The method in brief:
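Compounds dispensed acoustically from DMSO stocks onto MCF-7 cells; cells fixed 20 min at room temperature, then automated immunostaining for ERα with overnight incubation at 4° C. Read-out is mean total ER fluorescence intensity normalized to cell number (intensity per cell), with curve fitting for concentration-response values.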

A further data set has as its target hERG potassium channel (Homo sapiens (Human), UniProt Q12809). Kind of data set: hERG binding assay (automated patch clamp, CHO cells). It is filed as cell-based. The following applies: CHO cell line, Nanion Syncropatch 384PE. The method, boiled down: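 CHO cells on automated patch clamp; compounds tested in quadruplicate. Currents evoked every 15 s from −80 mV holding by a 500 ms step to 60 mV then 500 ms to −40 mV.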

The target in data set [3] is recombinant human Estrogen Receptor alpha ligand binding domain (ER alpha-LBD (GST)) (Homo sapiens (Human), UniProt P03372). The data set can be described thus: ERα binding assay (LanthaScreen TR-FRET competition). The following applies: TR-FRET, displacement of Fluormone ES2. The method, boiled down: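 Competition binding to GST-tagged human ERα ligand-binding domain, read by LanthaScreen TR-FRET: Tb-anti-GST antibody labels the receptor and compounds displace a fluorescent tracer, lowering the signal. IC50 was taken from dose-response curve fitting.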
Sequence of recombinant human Estrogen Receptor alpha ligand binding domain (ER alpha-LBD (GST)) (P03372 307-554): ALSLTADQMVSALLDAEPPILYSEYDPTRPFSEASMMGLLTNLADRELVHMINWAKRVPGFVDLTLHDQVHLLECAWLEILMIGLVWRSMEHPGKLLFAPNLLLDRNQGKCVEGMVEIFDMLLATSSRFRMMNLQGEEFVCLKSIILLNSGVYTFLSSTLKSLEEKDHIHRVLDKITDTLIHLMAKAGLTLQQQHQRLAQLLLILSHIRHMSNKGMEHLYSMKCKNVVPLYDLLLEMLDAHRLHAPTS

Data set [4] in a line: Thermodynamic solubility (shake-flask). It is filed as physicochemical. The following applies: aqueous phosphate buffer, 25 °C, pH 7.4, aqueous buffer, thermodynamic from solid, aqueous phosphate buffer pH 7.4, 24 hours. The method, boiled down:
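Shake-flask method starting from 10 mM DMSO stocks, which are dried before use. Residue equilibrated 24 h at 25° C. in aqueous phosphate buffer, pH 7.4. Dissolved fraction separated and quantified by UPLC/MS/MS, with QC samples in each run.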

Data set [5] deals with estrogen receptor (ERα) in CAMA-1 cells (Homo sapiens (Human), UniProt P03372). Kind of data set: Western blotting assay, ER down-regulation in CAMA-1. It is filed as cell-based. The following applies: 100 nM compound, 48 h, normalised to 100 nM fulvestrant. As to the method: as §1, §2, §3, §4, §5
Sequence of estrogen receptor (ERα) in CAMA-1 cells (P03372 whole entry): as the sequence (P03372 whole entry) above
A short description of data set [6]: Human plasma protein binding (equilibrium dialysis). It is filed as in vitro ADME. As to conditions: dialysis 18 hours. The method, boiled down:
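Fraction unbound (fu %) in human plasma, from LC/MSMS of plasma and buffer sides (7-point plasma calibration) after 18 h rapid equilibrium dialysis. Single determinations, with compounds pooled up to 10 per plasma pool.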

The nature of data set [7]: log D (shake flask, 1-octanol/aqueous buffer). It is filed as physicochemical. The method in brief: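 Distribution between 1-octanol and aqueous buffer at pH 7.4 was measured by shake flask, with compounds run in mixtures of ten. Relative concentrations in each phase were quantified by UPLC with quantitative MS. Caffeine served as a low-log D QC sample in all runs.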

Data set [8] in a line: Human Caco-2 bidirectional permeability A to B and B to A. As to conditions: Caco-2, 2 hours, pH 7.4. It is filed as in vitro ADME. As to the method: An automated assay was used to determine the bidirectional permeability (efflux and uptake) of compounds in Caco-2 cells carried out over 2 hours at pH 7.4.
The efflux ratio (ER) can be determined using the following equation: ER=Papp(B-A)/Papp(A-B) Where Papp (B-A) indicates the apparent permeability coefficient in basolateral to apical direction, and Papp (A-B) indicates the apparent permeability coefficient in apical to basolateral direction. Human Caco-2 Passive Permeability A to B Papp

[9] abbreviates: 1-octanol/aqueous buffer, pH 7.4, pH 7.4, 1-octanol/aqueous buffer.

Converted amounts (≈) assume the structure as drawn.

Sequence of hERG potassium channel (Q12809 whole entry): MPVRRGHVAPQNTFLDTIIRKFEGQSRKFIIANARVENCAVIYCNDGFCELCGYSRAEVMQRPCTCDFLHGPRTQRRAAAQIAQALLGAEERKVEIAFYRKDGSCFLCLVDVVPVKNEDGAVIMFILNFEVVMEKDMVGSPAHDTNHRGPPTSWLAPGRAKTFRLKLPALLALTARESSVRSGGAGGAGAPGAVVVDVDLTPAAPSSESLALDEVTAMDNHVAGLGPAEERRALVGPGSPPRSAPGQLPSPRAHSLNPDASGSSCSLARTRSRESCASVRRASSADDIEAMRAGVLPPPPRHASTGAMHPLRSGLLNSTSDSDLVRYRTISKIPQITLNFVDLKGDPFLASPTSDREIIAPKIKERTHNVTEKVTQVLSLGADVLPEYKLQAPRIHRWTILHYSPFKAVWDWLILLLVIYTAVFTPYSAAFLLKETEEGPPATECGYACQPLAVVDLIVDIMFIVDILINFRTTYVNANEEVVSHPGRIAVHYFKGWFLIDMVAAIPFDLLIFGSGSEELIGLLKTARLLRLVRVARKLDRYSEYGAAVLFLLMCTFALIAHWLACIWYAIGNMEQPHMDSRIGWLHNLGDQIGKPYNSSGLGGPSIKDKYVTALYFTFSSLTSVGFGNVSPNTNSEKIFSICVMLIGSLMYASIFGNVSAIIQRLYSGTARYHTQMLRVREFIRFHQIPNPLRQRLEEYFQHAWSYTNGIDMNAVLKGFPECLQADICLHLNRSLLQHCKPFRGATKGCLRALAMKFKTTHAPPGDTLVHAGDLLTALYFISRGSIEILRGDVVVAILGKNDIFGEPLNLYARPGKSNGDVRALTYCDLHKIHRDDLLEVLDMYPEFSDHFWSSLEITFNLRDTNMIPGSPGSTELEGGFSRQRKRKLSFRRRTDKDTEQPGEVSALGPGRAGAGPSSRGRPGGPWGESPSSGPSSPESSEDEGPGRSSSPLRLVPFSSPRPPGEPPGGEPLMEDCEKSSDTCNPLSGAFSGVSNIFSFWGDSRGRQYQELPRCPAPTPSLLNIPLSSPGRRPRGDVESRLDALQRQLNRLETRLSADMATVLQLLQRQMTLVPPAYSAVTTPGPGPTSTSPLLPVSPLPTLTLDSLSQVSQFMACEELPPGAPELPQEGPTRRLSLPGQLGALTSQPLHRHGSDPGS

As to `C[C@@H]1Cc2c(ccc3[nH]ncc23)[C@@H](c2ccc(NC3CN(CCCF)C3)nc2F)N1CC(F)(F)F` [Example 40, 6-fluoro-N-(1-(3-fluoropropyl)azetidin-3-yl)-5-((6S,8R)-8-methyl-7-(2,2,2-trifluoroethyl)-6,7,8,9-tetrahydro-3H-pyrazolo[4,3-f]isoquinolin-6-yl)pyridin-2-amine], the “MCF7 Western % ER deg vs Fv” value in data set [1] is 98%. In addition, the values for the IC50 (in data set [2]; on hERG potassium channel; in data set [3]) were 0.1 nM, 4500 nM and 1.3 nM, respectively. In addition, in data set [4], the solubility at 24 h stood at 479 µM (≈ 237 µg/mL). The “CAMA1 Western % ER deg vs Fv” value in data set [5] is listed as 120%. Further, the “Human plasma protein binding (% free)” value in data set [6] was 6.4 % free. Also, the logD in [7] (setting [9]) stood at 3.5.

As to `CC(C)CN1[C@H](c2ccc(NC3CN(CCCF)C3)cn2)c2ccc3[nH]ncc3c2C[C@H]1C` [Example 69, N-(1-(3-fluoropropyl)azetidin-3-yl)-6-((6S,8R)-7-isobutyl-8-methyl-6,7,8,9-tetrahydro-3H-pyrazolo[4,3-f]isoquinolin-6-yl)pyridin-3-amine], in data set [1], the “MCF7 Western % ER deg vs Fv” value is given as 95%. For the same molecule, the values for the IC50 (in data set [2]; on hERG potassium channel; in data set [3]) were 0.55 nM, 24000 nM and 8.9 nM, respectively. Further, the solubility at 24 h in [4] was more than 1000 µM. For the same molecule, the “CAMA1 Western % ER deg vs Fv” value in data set [5] came to 98%. Moreover, the “Human plasma protein binding (% free)” value in [6] was 37 % free. For the same molecule, the logD in data set [7] (setting [9]) was found to be 2.9.

For `C[C@@H]1Cc2c(ccc3[nH]ncc23)[C@@H](c2ccc(N(C)C3CN(CCCF)C3)cn2)N1CC(F)(F)F` [Example 34, N-(1-(3-fluoropropyl)azetidin-3-yl)-N-methyl-6-((6S,8R)-8-methyl-7-(2,2,2-trifluoroethyl)-6,7,8,9-tetrahydro-3H-pyrazolo[4,3-f]isoquinolin-6-yl)pyridin-3-amine], the “MCF7 Western % ER deg vs Fv” value in [1] is recorded as 85%. Besides, the figures for the IC50 (in data set [2]; on hERG potassium channel; in data set [3]) were 0.22 nM, 7700 nM and 1.9 nM, respectively. The molecule further registered a solubility at 24 h in [4] of 471 µM (≈ 231 µg/mL). Also, in data set [5], the “CAMA1 Western % ER deg vs Fv” value was 82%. The “Human plasma protein binding (% free)” value in [6] is on record as 15 % free. For the same molecule, in data set [7] (pH 7.4, 1-octanol/aqueous buffer), the logD was determined as 3.2.

In the case of `C[C@@H]1Cc2c(ccc3[nH]ncc23)[C@@H](c2ncc(NC3CN(CCCF)C3)cc2F)N1CC(F)F` [Example 46, 6-((6S,8R)-7-(2,2-difluoroethyl)-8-methyl-6,7,8,9-tetrahydro-3H-pyrazolo[4,3-f]isoquinolin-6-yl)-5-fluoro-N-(1-(3-fluoropropyl)azetidin-3-yl)pyridin-3-amine], the “MCF7 Western % ER deg vs Fv” value in data set [1] is given as 105%. Further, the IC50 in [2] was 0.4 nM; at hERG potassium channel, more than 40000 nM; in data set [3], 3.6 nM. The solubility at 24 h in data set [4] is more than 1000 µM. Further, the “CAMA1 Western % ER deg vs Fv” value in data set [5] was found to be 102%. Moreover, in data set [6], the “Human plasma protein binding (% free)” value is given as 31 % free. For the same molecule, the logD in [7] (setting [9]) is 2.5.

In the case of `C[C@@H]1Cc2c(ccc3[nH]ncc23)[C@@H](c2cnc(NC3CN(CCCF)C3)cn2)N1CC(F)(F)F` [Example 42, N-(1-(3-fluoropropyl)azetidin-3-yl)-5-((6S,8R)-8-methyl-7-(2,2,2-trifluoroethyl)-6,7,8,9-tetrahydro-3H-pyrazolo[4,3-f]isoquinolin-6-yl)pyrazin-2-amine], the “MCF7 Western % ER deg vs Fv” value in [1] was determined as 92%. The values for the IC50 (in [2]; at hERG potassium channel; in [3]) were 0.28 nM, 7900 nM and 3.8 nM, respectively. This molecule gave a solubility at 24 h in data set [4] of 712 µM (≈ 340 µg/mL). Also, the “CAMA1 Western % ER deg vs Fv” value in [5] is listed as 79%. The molecule further showed a pH-dependent lipophilicity (logD) in [7] (setting [9]) of 2.4.

As for `C[C@@H]1Cc2c(ccc3[nH]ncc23)[C@@H](c2c(F)cc(NC3CN(CCCF)C3)cc2F)N1CC(F)F` [Example 49, N-(4-((6S,8R)-7-(2,2-difluoroethyl)-8-methyl-6,7,8,9-tetrahydro-3H-pyrazolo[4,3-f]isoquinolin-6-yl)-3,5-difluorophenyl)-1-(3-fluoropropyl)azetidin-3-amine], in data set [1], the “MCF7 Western % ER deg vs Fv” value is on record as 98%. For the same molecule, the IC50 in data set [2] turned out to be 0.075 nM; on hERG potassium channel, 8200 nM; in data set [3] it was 1.5 nM. Further, in data set [4], the solubility at 24 h was 163 µM (≈ 80.4 µg/mL). The “CAMA1 Western % ER deg vs Fv” value in data set [5] was 99%. For the same molecule, the logD in data set [7] (setting [9]) amounted to 3.8.

For the molecule `C[C@@H]1Cc2c(ccc3[nH]nc(F)c23)[C@@H](c2ccc(NC3CN(CCCF)C3)cn2)N1CC(F)(F)F` [Example 32], the Papp at 2 h in data set [8] stood at 3.4 ×10⁻⁶ cm/s. Also, the “MCF7 Western % ER deg vs Fv” value in data set [1] was determined as 89%. For the same molecule, the IC50 at hERG potassium channel came to 14000 nM. Further, the solubility at 24 h in [4] was 692 µM (≈ 342 µg/mL). The “CAMA1 Western % ER deg vs Fv” value in [5] was determined as 89%. Also, the “Human plasma protein binding (% free)” value in [6] was determined as 6.5 % free. Moreover, the logD in data set [7] (setting [9]) turned out to be 3.5.

On to `C[C@@H]1Cc2c(ccc3[nH]ncc23)[C@@H](c2ncc(OC3CN(CCCF)C3)cc2F)N1CC(F)(F)CO` [Example 59, 2,2-difluoro-3-((6S,8R)-6-(3-fluoro-5-((1-(3-fluoropropyl)azetidin-3-yl)oxy)pyridin-2-yl)-8-methyl-3,6,8,9-tetrahydro-7H-pyrazolo[4,3-f]isoquinolin-7-yl)propan-1-ol], for which the “MCF7 Western % ER deg vs Fv” value in [1] is given as 104%. The IC50 in [2] is 1.6 nM; on hERG potassium channel it was more than 40000 nM; in [3], 7.2 nM. Further, in data set [4], the solubility at 24 h is 971 µM (≈ 493 µg/mL). Also, the “CAMA1 Western % ER deg vs Fv” value in data set [5] turned out to be 102%. The “Human plasma protein binding (% free)” value in data set [6] was determined as 33 % free. The molecule also displayed a logD in data set [7] (setting [9]) of 2.4.

On to `C[C@@H]1Cc2c(ccc3[nH]ncc23)[C@@H](c2c(F)cc(NC3CN(CCCF)C3)cc2F)N1CC(F)(F)CO` [Example 5, 3-((6S,8R)-6-(2,6-difluoro-4-((1-(3-fluoropropyl)azetidin-3-yl)amino)phenyl)-8-methyl-3,6,8,9-tetrahydro-7H-pyrazolo[4,3-f]isoquinolin-7-yl)-2,2-difluoropropan-1-ol], for which the “MCF7 Western % ER deg vs Fv” value in data set [1] came to 99%. For the same molecule, the figures for the IC50 (in data set [2]; on hERG potassium channel; in data set [3]) were 0.077 nM, 13000 nM and 2.2 nM, respectively. Moreover, the solubility at 24 h in data set [4] was found to be 297 µM (≈ 155 µg/mL). The “CAMA1 Western % ER deg vs Fv” value in data set [5] is reported as 109%. In addition, the “Human plasma protein binding (% free)” value in data set [6] stood at 8.6 % free. The logD in [7] (setting [9]) stood at 3.3.

The values are drawn from patent publication US10131663B2, “Chemical compounds” (AstraZeneca AB, priority 2016, dated 2018).
